This is an account of results in patent US10434133B2, “Inflammation-suppressing composition including peptide” (KIRIN KABUSHIKI KAISHA, priority 2015, dated 2019).

The subject of the experiment is microglia. The experiment can be described thus: TNF-α production of LPS/IFN-γ-stimulated isolated microglia (Test Examples 1 to 3). As to conditions: peptides at 10 μM and 50 μM; FIG. 2. It is filed as cell-based, mouse. The protocol: Microglia were isolated from the mouse brain by the magnetic cell sorting method. Specifically, the brain removed from a mouse was treated with papain to obtain a brain tissue dispersion and the enzyme reaction was stopped. Subsequently, the dispersion was reacted to CD11b antibody (manufactured by Miltenyi Biotec), a common microglia marker magnetically labelled with superparamagnetic microbeads, to carry out magnetic separation whereby microglia were isolated. The isolated microglia cell was cultured for 12 hours in medium to which the above 336 dipeptides were added in a concentration of 50 μM each. Subsequently, 5 ng/ml of lipopolysaccharide (LPS, manufactured by SIGMA-ALDRICH) and 0.5 ng/ml of IFN-γ (manufactured by R&D system) were added thereto, the cell was further cultured for 12 hours and TNF-α contained in the culture supernatant was quantitatively determined using an ELISA kit (manufactured by eBioscience). […] Note that the results are average values of three consecutive data. Additionally, hereinafter the amino acids are shown in one-letter abbreviations. […] Note that, for the control, those cultured with no addition of the peptides were used as in Test Example 1. For comparison, the dipeptides having the same amino acid composition with different sequences, that it, VD and HL were also measured for the TNF-α production at different concentrations.

On to “TDVE: tetrapeptide having DV as the core sequence”, for which the “inflammation suppression effect against microglia (TNF-α)” value was “the most intense”.
